Experimental data published in paper PMC3068151 (PLoS ONE, 2011).

Tests used:
EphB kinases = test: ELISA displacement of biotinylated ephrinB1-Fc from immobilized EphB-Fc ectodomains; format: binding; conditions: biotinylated ephrinB1-Fc at KD concentration
PC3, HT29 and T47D cells = test: MTT cell viability assay; format: cell-based, human; conditions: concentrations studied in phosphorylation studies; 2 hours incubation
Procedure: Cell viability was evaluated using the MTT colorimetric assay. Cells were plated in 96-well plates at a density of 10^5cells/ml and the day after treated with compounds or 0.5% DMSO for 2, 24, 48, or 72 hours. MTT was added at the final concentration of 1 mg/ml and incubated for 2 hours. The resulting formazan crystals were washed with PBS 100 µl/well and then solubilized with DMSO 200 µl/well. The absorbance was measured at 550 nm using an ELISA plate reader and the results were expressed as the ratio between absorbance of the cell treated with the compounds and untreated cells.
Supplementary file pone.0018128.s003.pdf: Figure S2 Cytotoxicity of bile acids on PC3, HT29 and T47D cells after 2 hours of incubation with the indicated compounds. Data are means±SEM. (PDF) Click here for additional data file.

C[C@H](CCC(=O)O)[C@H]1CC[C@H]2[C@@H]3CC[C@@H]4C[C@H](O)CC[C@]4(C)[C@H]3CC[C@]12C [LCA, lithocholic acid]
displacement of ephrin-B1-Fc ectodomain from immobilized EphB-Fc ectodomains (EphB kinases): dose-dependently displaced
toxicity (MTT) (PC3, HT29 and T47D cells): devoid of any toxicity
